What was measured:
[1] = molecular target: T1, bacterial NAD synthetase enzyme (Bacillus subtilis, UniProt P08164); experiment: biochemical; type: biochemical
T1 sequence (P08164 2-272 limits assumed): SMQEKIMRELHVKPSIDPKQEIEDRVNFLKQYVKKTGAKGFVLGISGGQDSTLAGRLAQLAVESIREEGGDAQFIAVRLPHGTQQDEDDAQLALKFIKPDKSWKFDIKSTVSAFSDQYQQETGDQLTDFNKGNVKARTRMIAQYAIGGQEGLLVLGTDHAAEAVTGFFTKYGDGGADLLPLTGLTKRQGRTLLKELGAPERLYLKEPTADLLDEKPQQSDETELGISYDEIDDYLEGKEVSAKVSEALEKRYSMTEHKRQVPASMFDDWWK

[2] = system: Staphylococcus epidermitis; experiment: Dose response of bacterial growth inhibition, MIC85; conditions: for MIC: Staphylococcus, read-out: MIC85; for MIC85: minimum inhibitory concentration to achieve 85% inhibition, S. epidermitis
[3] = system: Staphylococcus epidermitis; experiment: Bacterial growth inhibition screen in LB media (absorbance 595 nm), percent inhibition; conditions: for % Inhibition: S. epidermitis
[4] = Staphylococcus, read-out: % Inhibition, S. epidermitis, concentration screened 100 uM
[5] = compound at 0.2 mM (Table 312A)

Q: How did the IC50 [1] turn out when COC(=O)c1cc2ccccc2n1CCCCCCCCC[n+]1ccccc1 [Compound 182] was run?
A: 60 µM

Q: And the inhibition at 100 µM [1]?
A: 95.4%

Q: What about the MIC [2] of the same compound?
A: 10 µM

Q: What about the inhibition of growth at 100 µM [3, 4] of the same compound?
A: 97.7%

Q: For COC(=O)c1ccc[n+](CCCCCCCCCn2c(C(=O)OC)cc3ccccc32)c1 [Compound 190], which IC50 [1] is on record?
A: 50 µM

Q: What about the MIC [2] of the same compound?
A: 3 µM

Q: And the inhibition of growth at 100 µM [3, 4]?
A: 97.7%

Q: How did the IC50 [1] turn out when COC(=O)c1ccc2ccn(CCCCCCC[n+]3ccccc3)c2c1 [Compound 213] was run?
A: 65 µM

Q: And the inhibition at 200 µM [1]?
A: 90.7%

Q: What about the MIC [2] of the same compound?
A: 10 µM

Q: What about the inhibition of growth at 10 µM ([3]; Staphylococcus, read-out: % Inhibition, S. epidermitis, concentration screened 10 uM) of the same compound?
A: 97.4%

Q: For COC(=O)c1ccc2ccn(CCCCCCCCC[n+]3ccccc3)c2c1 [Compound 214], which IC50 [1] is on record?
A: 30 µM

Q: What about the inhibition at 100 µM [1] of the same compound?
A: 82.8%

Q: What about the MIC [2] of the same compound?
A: 10 µM

Q: And the inhibition of growth at 100 µM [3, 4]?
A: 98.1%

Q: Which results are given for COC(=O)c1ccc2ccn(CCCCCCCCC[n+]3cccc(C(=O)OC)c3)c2c1 [Compound 222]?
A: % Inhibition [1, 5]: 52.98%; MIC85 [2]: 30 µM; % Inhibition ([3]; concentration screened 10 uM): 98.50%

Q: For COC(=O)c1cc2cc(OCc3ccccc3)ccc2n1CCC[n+]1ccccc1 [Compound 227], which “% Inhibition” value [1, 5] is on record?
A: 91.19%

Q: And the MIC85 [2]?
A: 30 µM

Q: And the “% Inhibition” value ([3]; concentration screened 10 uM)?
A: 96.46%

Q: For COC(=O)c1cc2cc(OCc3ccccc3)ccc2n1CCCCC[n+]1ccccc1 [Compound 228], which IC50 [1] is on record?
A: 60 µM

Q: And the inhibition at 100 µM [1]?
A: 95.1%

Q: What about the MIC [2] of the same compound?
A: 10 µM

Q: And the inhibition of growth at 100 µM [3, 4]?
A: 96.8%

Q: What does the source list for COC(=O)c1cc2cc(OCc3ccccc3)ccc2n1CCCCCCC[n+]1ccccc1 [Compound 229]?
A: IC50 [1]: 25 µM; inhibition at 100 µM [1]: 99.3%; MIC [2]: 3 µM; inhibition of growth at 100 µM [3, 4]: 98%

Q: How did the “% Inhibition” value [1, 5] turn out when COC(=O)c1cc2cc(OC)ccc2n1CCCCCCCCC[n+]1ccccc1 [Compound 246] was run?
A: 92.19%

Q: What about the MIC85 [2] of the same compound?
A: 30 µM

Q: And the “% Inhibition” value ([3]; concentration screened 10 uM)?
A: 90.26%

Q: Which results are given for FC(F)(F)c1ccc2cc(CCC[n+]3ccccc3)[nH]c2c1 [Compound 288]?
A: % Inhibition ([1]; compound at 0.1 mM (Table 314)): 42.38%; MIC85 [2]: 30 µM; % Inhibition ([3]; concentration screened 10 uM): 99.65%

Q: Which “% Inhibition” value [1, 5] does the source give for FC(F)(F)c1ccc2cc(CCCCCC[n+]3ccccc3)[nH]c2c1 [Compound 291] here?
A: 71.94%

Q: And the MIC85 [2]?
A: 30 µM

Q: What about the “% Inhibition” value ([3]; concentration screened 100 uM) of the same compound?
A: 100.00%

Q: How did the “% Inhibition” value ([1]; compound at 0.1 mM (Table 314)) turn out when Cc1ccc2[nH]c(CCCC[n+]3ccccc3)cc2c1 [Compound 295] was run?
A: 25.05%

Q: And the MIC85 [2]?
A: 10 µM

Q: And the “% Inhibition” value ([3]; concentration screened 10 uM)?
A: 94.48%

Q: Which results are given for Cc1ccc2[nH]c(CCCCC[n+]3ccccc3)cc2c1 [Compound 296]?
A: % Inhibition [1, 5]: 16.79%; MIC85 [2]: 30 µM; % Inhibition ([3]; concentration screened 10 uM): 87.47%

Q: Cc1ccc2[nH]c(CCCCCC[n+]3ccccc3)cc2c1 [Compound 297] was tested. Which “% Inhibition” value ([1]; compound at 0.1 mM (Table 314)) did it give?
A: 50.83%

Q: And the MIC85 [2]?
A: 30 µM

Q: And the “% Inhibition” value ([3]; concentration screened 100 uM)?
A: 100.00%

Q: CCCCc1ccc2[nH]c(CCCCCC[n+]3ccccc3)cc2c1 [Compound 315] was tested. Which IC50 [1] did it give?
A: 100 µM

Q: And the inhibition at 100 µM [1]?
A: 77.2%

Q: And the MIC [2]?
A: 30 µM

Q: And the inhibition of growth at 100 µM [3, 4]?
A: 100%

Q: FC(F)(F)c1ccc2[nH]c(CCCCC[n+]3ccccc3)cc2c1 [Compound 362] was tested. Which “% Inhibition” value ([1]; compound at 0.1 mM (Table 314)) did it give?
A: 8.31%

Q: What about the MIC85 [2] of the same compound?
A: 30 µM

Q: And the “% Inhibition” value ([3]; concentration screened 100 uM)?
A: 100.00%

Q: FC(F)(F)c1ccc2[nH]c(CCCCCC[n+]3ccccc3)cc2c1 [Compound 363] was tested. Which “% Inhibition” value [1, 5] did it give?
A: 75.01%

Q: And the MIC85 [2]?
A: 30 µM

Q: What about the “% Inhibition” value ([3]; concentration screened 100 uM) of the same compound?
A: 100.00%

Q: COc1ccc2[nH]c(CCCCC[n+]3ccccc3)cc2c1 [Compound 374] was tested. Which “% Inhibition” value ([1]; compound at 0.1 mM (Table 314)) did it give?
A: 31.84%

Q: And the MIC85 [2]?
A: 30 µM

Q: What about the “% Inhibition” value ([3]; concentration screened 100 uM) of the same compound?
A: 100.00%

Q: With COc1ccc2[nH]c(CCCCCC[n+]3ccccc3)cc2c1 [Compound 375] as the compound, how does the “% Inhibition” value ([1]; compound at 0.1 mM (Table 314)) read?
A: 60.14%

Q: What about the MIC85 [2] of the same compound?
A: 30 µM

Q: And the “% Inhibition” value ([3]; concentration screened 100 uM)?
A: 100.00%

Q: With c1ccc2c[n+](CCCCCc3cc4ccccc4[nH]3)ccc2c1 [Compound 500] as the compound, how does the “% Inhibition” value ([1]; compound at 0.1 mM (Table 314)) read?
A: 18.25%

Q: What about the MIC85 [2] of the same compound?
A: 30 µM

Q: What about the “% Inhibition” value ([3]; concentration screened 100 uM) of the same compound?
A: 99.14%

Q: Cc1ccc2[nH]c(CCCCC[n+]3ccc4ccccc4c3)cc2c1 [Compound 512] was tested. Which “% Inhibition” value [1, 5] did it give?
A: 17.50%

Q: What about the MIC85 [2] of the same compound?
A: 30 µM

Q: And the “% Inhibition” value ([3]; concentration screened 100 uM)?
A: 99.71%

Q: With Fc1cc(F)c2[nH]c(CCCCC[n+]3ccc4ccccc4c3)cc2c1 [Compound 518] as the compound, how does the “% Inhibition” value ([1]; compound at 0.1 mM (Table 314)) read?
A: 30.39%

Q: What about the MIC85 [2] of the same compound?
A: 30 µM

Q: What about the “% Inhibition” value ([3]; concentration screened 100 uM) of the same compound?
A: 100.00%

Reference: US6727237B2, “Inhibitors of bacterial NAD synthetase” (priority 1998, dated 2004)
